Reference: the METLIN SMRT retention time set (Domingo-Almenara et al. 2019)

Test: gradient 5% acetonitrile 3 min, to 50% in 2 min, to 85% in 15 min, held 3 min, 100 µL/min
Details: column: Zorbax Extend-C18 2.1 x 50 mm; eluents: water / acetonitrile, 0.1% formic acid
How it was run: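 The system's dead and dwell volumes were 40 μL and 900 μL, with a Zorbax Extend-C18 column (2.1 × 50 mm, 1.8 μm) run at 100 μL/min in water and acetonitrile containing 0.1% formic acid each. Pure standards were analyzed in mixtures of ~100 molecules by HPLC–quadrupole time-of-flight mass spectrometry in positive and negative ionization mode. Retention time was assigned from computationally picked, manually inspected adduct peaks.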

| Compound | RP-LC retention time [s] |
| --- | --- |
| Cc1ccc(CCNC(=O)c2nc(N3CCOCC3)c3ccccc3n2)cc1 | 729 |
| O=C(Cn1ncc2c(N3CCN(c4ccccn4)CC3)ncnc21)N1CCN(c2ccccc2)CC1 | 603 |
| COc1ccc2cc(C(=O)N3CCN(c4cc(=O)n(C(C)C)c(=O)n4C(C)C)CC3)[nH]c2c1 | 909 |
| Cc1ccc(CNc2c(-c3ccc(F)cc3)nc3ncccn23)cc1 | 789 |
| Cc1ccc(NC(=O)c2ccccc2C(=O)O)cc1Br | 768 |
| COC(=O)c1ccc(C(=O)Nc2nnc(-c3cccs3)o2)cc1 | 710 |
| CCn1cc(C(=O)Nc2ccc(F)c(F)c2)c(S(=O)(=O)N2CCSCC2)n1 | 1010 |
| Cc1ccc(NC(=O)N(C)CCc2noc(COc3ccccc3F)n2)c(C)c1 | 922 |
| Cc1cc(=O)n(CC(=O)NC(C)C)c(N2CCc3ccccc3C2)n1 | 665 |
| CC(C)Cn1c(-c2ccc(N(C)C)cc2)nc2ccccc21 | 748 |
| Cc1nn(-c2ccccc2)c2c1N(CCCC(=O)NCCN(C)C)C(=O)CS2 | 602 |
| c1cc2c(cc1-c1noc(C3CCCCC3)n1)nnn2CCN1CCOCC1 | 711 |
| CC(C)CCNC(=O)C1(C)CN(S(=O)(=O)c2ccccc2)CC(=O)N1c1cccc(Cl)c1 (configuration not stated) | 1020 |
| CCc1ccc(NC(=O)CN2CCN(Cc3ccc(F)cc3)C(=O)C2=O)cc1 | 818 |
| CCCCC(=O)Nc1nc(-c2ccc3c(c2)NC(=O)CO3)cs1 | 801 |
| CCC(C(=O)NCC(=O)Nc1nc2ccccc2[nH]1)c1ccccc1 (configuration not stated) | 654 |
| COc1ccc(Cl)cc1C(=O)Nc1cnc(N2CCCC2)nc1 | 818 |
| O=c1[nH]c2ccc(NCc3ccc(F)cc3)cc2[nH]1 | 580 |
| COc1ccc(-c2ncc3c(n2)CCN(S(=O)(=O)c2cc(C)ccc2C)C3)cc1 | 1150 |

| Compound | RP-LC retention time [s] |
| --- | --- |
| O=C(Nc1cccc(Cl)c1)N1CCC(n2c(C(F)(F)F)nc3cccnc32)CC1 | 961 |
| O=C(Nc1ccc(S(=O)(=O)N2CCOCC2)cc1)c1ccc(Br)s1 | 858 |
| CCn1ncn2cc(S(=O)(=O)NCc3ccccc3)cc2c1=O | 800 |
| Cc1ccc2c(c1)N(Cc1nc(-c3ccccc3Cl)no1)C(=O)CO2 | 1040 |
| Cc1noc(-c2cc(=O)n(CC(=O)NC3CCCCC3)c3ccccc23)n1 | 819 |
| O=C(c1ccc2c(c1)OCO2)N1CCN(c2ccc(=O)n(-c3ccc(Cl)cc3)n2)CC1 | 791 |
| COc1ccc(-c2noc(C3CCCN3C(=O)CNC(=O)c3ccccc3)n2)cc1 (configuration not stated) | 792 |
| O=C(CCn1cnc2cc(-c3noc(-c4ccc(F)cc4)n3)ccc21)N1CCOCC1 | 706 |
| CCOC(=O)c1c(N2CCOCC2)nc2ccc([N+](=O)[O-])cc2c1-c1ccccc1 | 1110 |
| COc1ccc(-c2coc3cc(OCC(=O)O)ccc3c2=O)cc1 | 765 |
| COc1ccc(C2C(C(=O)NCc3ccccn3)c3cc(OC)c(OC)cc3C(=O)N2C)cc1 (configuration not stated) | 609 |
| COc1ccc(-c2nc3cc(C)ccn3c2NC(=O)C(C)(C)Oc2ccc(Cl)cc2)cc1 | 828 |
| CCCN1C(=O)Cc2cc(C(=O)NCc3ccc(SC)cc3)ccc21 | 829 |
| Cc1cn(C)c(CC(=O)NCCN2CCOCC2)c1C(=O)O | 572 |
| COc1ccccc1-c1nn2c(-c3ccc4ccccc4n3)nnc2s1 | 1040 |
| Cn1cnc(S(=O)(=O)N2CC(Oc3ccccc3-c3nc(C4CC4)no3)C2)c1 | 794 |
| COc1ccc(NC(=O)c2cc(C(C)C)n3nccc3n2)cc1 | 1040 |
| O=C(CN1C(=O)C(C(=O)N2CCCC2)Sc2ccccc21)N1CC=C(c2ccccc2)CC1 (configuration not stated) | 897 |
